# Tests used:
# Assay in all cases: Kinase assay, binding constants (Kd), kinase-tagged T7 phage, qPCR
# FGFR1 = FGFR1 (Homo sapiens (Human), UniProt P11362)
# Method in brief: (§1)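 Competition binding: kinase-tagged T7 phage lysates mixed with immobilized biotinylated ligand on streptavidin beads plus compound (11-point 3-fold dilution series, 0.9% DMSO final). Bound kinase eluted with free ligand and quantified by qPCR. Kd from Hill equation fit, slope fixed at −1.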
# FGFR2 = FGFR2 (Homo sapiens (Human), UniProt P21802)
# Method in brief: as §1
# FGFR3 = FGFR3 (Homo sapiens (Human), UniProt P22607)
# Method in brief: as §1
# FGFR3 (V555M) = FGFR3 (V555M) (Homo sapiens (Human), UniProt P22607, V555M); conditions: V555M mutant
# Method in brief: as §1
# FGFR4 = FGFR4 (Homo sapiens (Human), UniProt P22455)
# Method in brief: as §1
# FGFR2, sequence (P21802 22-821): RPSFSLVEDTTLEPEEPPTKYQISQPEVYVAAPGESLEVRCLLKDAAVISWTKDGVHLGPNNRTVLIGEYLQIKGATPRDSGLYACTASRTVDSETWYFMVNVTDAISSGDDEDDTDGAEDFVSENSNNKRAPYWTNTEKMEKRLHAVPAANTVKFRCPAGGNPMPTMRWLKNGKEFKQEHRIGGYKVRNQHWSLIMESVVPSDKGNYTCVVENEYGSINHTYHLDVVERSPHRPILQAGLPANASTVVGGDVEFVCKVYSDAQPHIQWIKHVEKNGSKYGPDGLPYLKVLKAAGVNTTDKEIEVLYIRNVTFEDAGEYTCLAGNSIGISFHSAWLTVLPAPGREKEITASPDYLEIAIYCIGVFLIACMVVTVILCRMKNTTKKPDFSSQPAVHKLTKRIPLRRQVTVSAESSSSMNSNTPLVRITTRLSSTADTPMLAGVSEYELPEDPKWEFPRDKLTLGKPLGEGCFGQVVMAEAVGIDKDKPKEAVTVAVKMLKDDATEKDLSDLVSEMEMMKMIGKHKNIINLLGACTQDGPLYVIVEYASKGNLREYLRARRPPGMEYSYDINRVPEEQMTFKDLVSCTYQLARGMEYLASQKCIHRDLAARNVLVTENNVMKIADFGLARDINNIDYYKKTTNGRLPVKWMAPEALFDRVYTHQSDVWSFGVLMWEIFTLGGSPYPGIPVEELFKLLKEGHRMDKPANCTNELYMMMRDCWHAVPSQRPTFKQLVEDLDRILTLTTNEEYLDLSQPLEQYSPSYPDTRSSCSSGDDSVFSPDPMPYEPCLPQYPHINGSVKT
# FGFR1, sequence (P11362 22-822): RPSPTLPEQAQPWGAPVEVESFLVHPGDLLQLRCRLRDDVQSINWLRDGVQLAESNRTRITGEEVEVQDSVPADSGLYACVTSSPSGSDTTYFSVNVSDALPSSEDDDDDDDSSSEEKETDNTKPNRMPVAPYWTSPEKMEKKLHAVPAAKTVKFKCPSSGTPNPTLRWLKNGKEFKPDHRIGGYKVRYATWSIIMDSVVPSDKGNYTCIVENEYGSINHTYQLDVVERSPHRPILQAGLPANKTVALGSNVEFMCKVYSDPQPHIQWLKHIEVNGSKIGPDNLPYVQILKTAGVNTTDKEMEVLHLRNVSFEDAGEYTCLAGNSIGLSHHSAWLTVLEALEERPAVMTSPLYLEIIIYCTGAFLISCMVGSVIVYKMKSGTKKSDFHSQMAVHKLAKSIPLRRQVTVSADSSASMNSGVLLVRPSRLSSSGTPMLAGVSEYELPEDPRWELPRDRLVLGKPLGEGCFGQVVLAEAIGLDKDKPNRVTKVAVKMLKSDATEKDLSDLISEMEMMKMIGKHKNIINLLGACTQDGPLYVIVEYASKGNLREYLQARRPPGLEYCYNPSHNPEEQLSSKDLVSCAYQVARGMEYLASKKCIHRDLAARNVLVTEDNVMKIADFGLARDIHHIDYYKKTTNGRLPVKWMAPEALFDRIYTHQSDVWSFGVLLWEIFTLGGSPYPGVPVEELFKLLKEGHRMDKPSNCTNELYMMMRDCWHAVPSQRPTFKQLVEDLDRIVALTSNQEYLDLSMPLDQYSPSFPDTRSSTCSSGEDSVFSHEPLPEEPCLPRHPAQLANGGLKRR
# FGFR3, sequence (P22607 23-806): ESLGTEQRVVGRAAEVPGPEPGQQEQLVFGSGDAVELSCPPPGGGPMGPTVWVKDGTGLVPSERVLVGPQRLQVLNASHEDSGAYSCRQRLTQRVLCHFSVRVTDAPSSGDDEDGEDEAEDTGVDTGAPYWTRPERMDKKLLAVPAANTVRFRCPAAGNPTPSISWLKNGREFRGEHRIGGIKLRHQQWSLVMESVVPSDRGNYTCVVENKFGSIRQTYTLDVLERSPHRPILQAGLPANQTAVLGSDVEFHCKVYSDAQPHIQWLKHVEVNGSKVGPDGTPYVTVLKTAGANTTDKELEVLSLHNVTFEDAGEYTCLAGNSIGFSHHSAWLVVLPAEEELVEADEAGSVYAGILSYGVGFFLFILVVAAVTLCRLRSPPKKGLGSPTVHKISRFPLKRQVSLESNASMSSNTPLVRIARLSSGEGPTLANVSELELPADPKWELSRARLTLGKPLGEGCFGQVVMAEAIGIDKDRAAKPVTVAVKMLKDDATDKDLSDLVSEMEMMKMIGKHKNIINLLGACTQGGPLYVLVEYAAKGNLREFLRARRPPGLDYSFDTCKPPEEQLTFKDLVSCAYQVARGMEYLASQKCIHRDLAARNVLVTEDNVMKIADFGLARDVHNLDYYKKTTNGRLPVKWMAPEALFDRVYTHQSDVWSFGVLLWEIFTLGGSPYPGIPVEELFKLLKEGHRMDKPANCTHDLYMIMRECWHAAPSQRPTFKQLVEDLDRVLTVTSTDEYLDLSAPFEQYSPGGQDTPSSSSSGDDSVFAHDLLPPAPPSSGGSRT
# FGFR4, sequence (P22455 22-802): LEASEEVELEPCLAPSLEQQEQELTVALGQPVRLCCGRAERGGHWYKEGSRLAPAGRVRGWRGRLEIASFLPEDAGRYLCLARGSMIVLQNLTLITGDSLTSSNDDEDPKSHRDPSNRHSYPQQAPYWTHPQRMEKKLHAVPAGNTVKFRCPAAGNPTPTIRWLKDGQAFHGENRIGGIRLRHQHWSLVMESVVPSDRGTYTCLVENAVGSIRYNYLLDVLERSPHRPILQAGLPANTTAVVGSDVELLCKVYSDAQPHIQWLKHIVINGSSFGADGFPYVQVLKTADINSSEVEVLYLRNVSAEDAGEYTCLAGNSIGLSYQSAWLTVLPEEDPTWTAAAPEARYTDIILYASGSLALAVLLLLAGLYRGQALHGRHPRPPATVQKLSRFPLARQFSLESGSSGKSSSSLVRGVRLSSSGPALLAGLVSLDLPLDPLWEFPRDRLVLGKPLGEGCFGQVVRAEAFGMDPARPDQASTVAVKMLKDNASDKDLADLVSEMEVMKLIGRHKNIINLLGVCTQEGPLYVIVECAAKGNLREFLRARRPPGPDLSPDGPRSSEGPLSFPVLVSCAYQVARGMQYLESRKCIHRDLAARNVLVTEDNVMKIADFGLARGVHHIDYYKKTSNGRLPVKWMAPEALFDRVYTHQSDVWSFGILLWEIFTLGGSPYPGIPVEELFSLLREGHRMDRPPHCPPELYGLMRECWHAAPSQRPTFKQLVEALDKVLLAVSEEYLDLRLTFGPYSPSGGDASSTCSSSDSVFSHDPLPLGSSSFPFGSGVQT
# FGFR3 (V555M), sequence (P22607 23-806 V555M): as the sequence (P22607 23-806) above, with V533M counted along it
Compound,Kd (FGFR1) [nM],Kd (FGFR2) [nM],Kd (FGFR3) [nM],Kd (FGFR3 (V555M)) [nM],Kd (FGFR4) [nM]
"C[C@@H](Oc1ccc2[nH]nc(-c3cnc(N4CC5(CCCN(S(C)(=O)=O)C5)C4)c(C#N)c3)c2c1)c1c(Cl)cncc1Cl [Example 338, (R)-5-(5-(1-(3,5-dichloropyridin-4-yl)ethoxy)-1H-indazol-3-yl)-2-(6-(methylsulfonyl)-2,6-diazaspiro[3.5]nonan-2-yl)nicotinonitrile]",100 to 300,> 300,20 to 100,1 to 20,1 to 20
"C[C@@H](Oc1ccc2[nH]nc(-c3ccc(N4CC5(C4)CN(S(C)(=O)=O)C5)nc3)c2c1)c1c(Cl)cnnc1Cl [Example 246, (R)-5-(1-(3,5-dichloropyridazin-4-yl)ethoxy)-3-(6-(6-(methylsulfonyl)-2,6-diazaspiro[3.3]heptan-2-yl)pyridin-3-yl)-1H-indazole]",1 to 20,1 to 20,1 to 20,1 to 20,1 to 20
"COc1cc(-c2n[nH]c3ccc(O[C@H](C)c4c(C)cnnc4C)cc23)cnc1N1CCC1 [Example 304, (R)-3-(6-(azetidin-1-yl)-5-methoxypyridin-3-yl)-5-(1-(3,5-dimethylpyridazin-4-yl)ethoxy)-1H-indazole]",> 300,> 300,100 to 300,20 to 100,1 to 20
"Cc1ncc(Cl)c([C@@H](C)Oc2cc3c(-c4cnc(N5CC6(C5)CN(S(C)(=O)=O)C6)c(C#N)c4)n[nH]c3cc2F)c1Cl [Example 379, 5-[5-[(1R)-1-(3,5-dichloro-2-methyl-4-pyridyl)ethoxy]-6-fluoro-1H-indazol-3-yl]-2-(2-methylsulfonyl-2,6-diazaspiro[3.3]heptan-6-yl)pyridine-3-carbonitrile]",100 to 300,100 to 300,20 to 100,1 to 20,1 to 20
"COc1cc2[nH]nc(-c3cnc(N4CC5(COC5)C4)c(C#N)c3)c2cc1O[C@H](C)c1c(C)cnnc1C [Example 324, (R)-5-(5-(1-(3,5-dimethylpyridazin-4-yl)ethoxy)-6-methoxy-1H-indazol-3-yl)-2-(2-oxa-6-azaspiro[3.3]heptan-6-yl)nicotinonitrile]",20 to 100,20 to 100,20 to 100,1 to 20,1 to 20
"COc1cc2[nH]nc(-c3cnc(N4CC5(CCCS(=O)(=O)C5)C4)c(C#N)c3)c2cc1O[C@H](C)c1c(Cl)cncc1Cl [Example 346, (R)-5-(5-(1-(3,5-dichloropyridin-4-yl)ethoxy)-6-methoxy-1H-indazol-3-yl)-2-(6,6-dioxido-6-thia-2-azaspiro[3.5]nonan-2-yl)nicotinonitrile]",1 to 20,1 to 20,1 to 20,1 to 20,1 to 20
"COc1cc2[nH]nc(-c3cnc(N4CC5(C4)CN(S(C)(=O)=O)C5)c(C#N)c3)c2cc1O[C@H](C)c1c(Cl)cnc(C)c1Cl [Example 341, 5-[5-[(1R)-1-(3,5-dichloro-2-methyl-4-pyridyl)ethoxy]-6-methoxy-1H-indazol-3-yl]-2-(2-methylsulfonyl-2,6-diazaspiro[3.3]heptan-6-yl)pyridine-3-carbonitrile]",20 to 100,20 to 100,1 to 20,1 to 20,1 to 20
"CCOC(=O)N1CC2(C1)CN(c1ccc(-c3n[nH]c4ccc(O[C@H](C)c5c(Cl)cnc(C)c5Cl)cc34)cn1)C2 [Example 190, ethyl 6-[5-[5-[(1R)-1-(3,5-dichloro-2-methyl-4-pyridyl)ethoxy]-1H-indazol-3-yl]-2-pyridyl]-2,6-diazaspiro[3.3]heptane-2-carboxylate]",100 to 300,100 to 300,1 to 20,1 to 20,20 to 100
"C[C@@H](Oc1ccc2[nH]nc(-c3cnc(N4CCC[C@@H]4CO)c(C#N)c3)c2c1)c1c(Cl)cncc1Cl [Example 332, 5-(5-((R)-1-(3,5-dichloropyridin-4-yl)ethoxy)-1H-indazol-3-yl)-2-((R)-2-(hydroxymethyl)pyrrolidin-1-yl)nicotinonitrile]",20 to 100,20 to 100,1 to 20,1 to 20,1 to 20
"C[C@@H](Oc1ccc2[nH]nc(-c3cnc(N4CCC4)c(C#N)c3)c2c1)c1c(Cl)cnc(F)c1Cl [Example 286, (R)-2-(azetidin-1-yl)-5-(5-(1-(3,5-dichloro-2-fluoropyridin-4-yl)ethoxy)-1H-indazol-3-yl)nicotinonitrile]",> 300,> 300,> 300,> 300,100 to 300
"COc1cc2[nH]nc(-c3cnc(N4CC[C@@H]4C)c(S(C)(=O)=O)c3)c2cc1O[C@H](C)c1c(Cl)cncc1Cl [Example 375, 5-((R)-1-(3,5-dichloropyridin-4-yl)ethoxy)-6-methoxy-3-(6-((S)-2-methylazetidin-1-yl)-5-(methylsulfonyl)pyridin-3-yl)-1H-indazole]",> 300,> 300,100 to 300,20 to 100,1 to 20
"Cc1cc2[nH]nc(-c3cnc(N4CC5(C4)CN(S(C)(=O)=O)C5)c(F)c3)c2cc1O[C@@H](C)c1c(Cl)cnnc1Cl [Example 254, (S)-5-(1-(3,5-dichloropyridazin-4-yl)ethoxy)-3-(5-fluoro-6-(6-(methylsulfonyl)-2,6-diazaspiro[3.3]heptan-2-yl)pyridin-3-yl)-6-methyl-1H-indazole]",> 300,100 to 300,20 to 100,1 to 20,> 300
"COc1cc2[nH]nc(-c3cnc(N4CC[C@@H](C(C)(C)O)C4)c(C#N)c3)c2cc1O[C@H](C)c1c(C)cnnc1C [Example 321, 5-(5-((R)-1-(3,5-dimethylpyridazin-4-yl)ethoxy)-6-methoxy-1H-indazol-3-yl)-2-((R)-3-(2-hydroxypropan-2-yl)pyrrolidin-1-yl)nicotinonitrile]",20 to 100,1 to 20,1 to 20,1 to 20,1 to 20
"Cc1cnnc(C)c1[C@@H](C)Oc1ccc2[nH]nc(-c3cnc(N4CC(O)C4)c(C#N)c3)c2c1 [Example 318, (R)-5-(5-(1-(3,5-dimethylpyridazin-4-yl)ethoxy)-1H-indazol-3-yl)-2-(3-hydroxyazetidin-1-yl)nicotinonitrile]",100 to 300,100 to 300,20 to 100,1 to 20,1 to 20
"C[C@@H](Oc1ccc2[nH]nc(-c3ccc(N4CC5(C4)CN(S(C)(=O)=O)C5)nc3)c2c1)c1cc(F)cc(F)c1 [Example 172, 5-[(1R)-1-(3,5-difluorophenyl)ethoxy]-3-[6-(2-methylsulfonyl-2,6-diazaspiro[3.3]heptan-6-yl)-3-pyridyl]-1H-indazole]",100 to 300,20 to 100,1 to 20,1 to 20,20 to 100
"C[C@@H](Oc1ccc2[nH]nc(-c3cnc(N4CC[C@H]4CO)c(C#N)c3)c2c1)c1c(Cl)cncc1Cl [Example 354, 5-(5-((R)-1-(3,5-dichloropyridin-4-yl)ethoxy)-1H-indazol-3-yl)-2-((S)-2-(hydroxymethyl)azetidin-1-yl)nicotinonitrile]",20 to 100,20 to 100,1 to 20,1 to 20,1 to 20

# Reference: patent US20240109865A1, “INDAZOLE COMPOUNDS AS KINASE INHIBITORS” (TYRA BIOSCIENCES, INC., priority 2020, published 2024)
